{"source": "patent US12162867B2", "about": "“Inhibitors of RNA helicase DHX9 and uses thereof” (ACCENT THERAPEUTICS, INC., priority 2022, dated 2024)"}
{"system": "circBRIP1 in HCT116 cells", "experiment": "DHX9 circBRIP1 cellular target engagement TaqMan Multiplex assay (qPCR)", "format": "cell-based", "settings": "Homo sapiens, HCT-116, 72 h, circBRIP1, HCT116 cells, 72 hours; Taqman assay (marked *); read-out: DHX9 Cellular Target Engagement EC50", "units": {"EC50": "nM"}}
{"molecule": "Cc1sc(C(=O)Nc2cc(Cl)cc(NS(C)(=O)=O)c2)cc1-c1ncc(C(F)(F)F)cc1C#N", "note": "[Example 367]", "EC50": 219}
{"molecule": "CCS(=O)(=O)Nc1cc(Cl)cc(NC(=O)c2cc(-c3ncc(C(F)(F)F)cn3)c(C)s2)c1", "note": "[Example 366]", "EC50": 128}
{"molecule": "Cc1cccnc1-c1ccc(C(=O)Nc2cc(Cl)cc(NS(C)(=O)=O)c2)s1", "note": "[Example 386]", "EC50": 1970}
{"molecule": "Cc1sc(C(=O)Nc2cc(Cl)cc(NS(C)(=O)=O)c2)cc1-c1c(F)cc(F)cc1F", "note": "[Example 378]", "EC50": 361}
{"molecule": "CS(=O)(=O)Nc1cc(Cl)cc(NC(=O)c2cc(-c3ncc(C(F)(F)F)cc3F)cs2)c1", "note": "[Example 371]", "EC50": 311}
{"molecule": "Cc1cccnc1-c1csc(C(=O)Nc2cc(Cl)cc(NS(=O)(=O)C(C)C)c2)c1", "note": "[Example 373]", "EC50": 506}
{"molecule": "Cc1sc(C(=O)Nc2cc(Cl)cc(NS(C)(=O)=O)c2)cc1-c1ncc(F)cc1Cl", "note": "[Example 359]", "EC50": 130}
{"system": "circBRIP1 in HCT116 cells", "experiment": "DHX9 circBRIP1 cellular target engagement TaqMan Multiplex assay (qPCR)", "format": "cell-based", "settings": "Homo sapiens, HCT-116, circBRIP1, HCT116 cells; * Taqman assay was used; read-out: DHX9 Cellular Target Engagement EC50", "units": {"EC50": "nM"}}
{"molecule": "Cn1cc(C(=O)Nc2cc(F)cc(NS(C)(=O)=O)c2)cc1-c1ncc(F)cc1F", "note": "[Example 558]", "EC50": 2910}
{"molecule": "Cc1cc(C(=O)Nc2cc(Cl)cc(NS(C)(=O)=O)c2)cn1-c1ncc(N2CC(F)(F)C2)cc1Cl", "note": "[Example 406]", "EC50": 161}
{"molecule": "Cn1cc(C(=O)Nc2cc(Cl)cc(NS(C)(=O)=O)c2)cc1-c1ncc(C(F)(F)F)cc1F", "note": "[Example 554]", "EC50": 238}
{"molecule": "Cc1sc(C(=O)Nc2cc(Cl)cc(NS(C)(=O)=O)c2)cc1-c1ncc(OC(C)CO)cn1", "note": "(stereo not drawn) [Example 677]", "EC50": 13.7}
{"molecule": "Cn1cc(C(=O)Nc2cc(Cl)cc(NS(C)(=O)=O)c2)cc1-c1ncc(F)cc1OCc1nnnn1C", "note": "[Example 625]", "EC50": 1010}
{"molecule": "CS(=O)(=O)Nc1cc(Cl)cc(NC(=O)c2cc(-c3ncc(N4CC(F)(F)C4)cc3F)cs2)c1", "note": "[Example 488]", "EC50": 285}
{"molecule": "CC(=O)N1CCN(c2cc(F)cnc2-c2cc(C(=O)Nc3cc(Cl)cc(NS(C)(=O)=O)c3)sc2C)CC1", "note": "[Example 504]", "EC50": 6860}
{"molecule": "Cc1cc(C(=O)Nc2cc(Cl)cc(NS(C)(=O)=O)c2)cn1-c1ncc(N2CCC3(C2)CC3(F)F)cc1F", "note": "(stereo not drawn) [Example 414]", "EC50": 128}
{"molecule": "Cn1cc(C(=O)Nc2cc(Cl)cc(NS(=O)(=O)C3CC3)c2)cc1-c1ccc(N2CC(F)(F)C2)cn1", "note": "[Example 530]", "EC50": "> 10000"}
{"molecule": "Cc1cc(C(=O)Nc2cc(Cl)cc(NS(C)(=O)=O)c2)cn1-c1ncc(N2CC(F)(F)C2)cc1OC1CCC1", "note": "[Example 673]", "EC50": 130}
{"molecule": "CC(C)Oc1cc(N2CC(F)(F)C2)cnc1-c1cc(C(=O)Nc2cc(Cl)cc(NS(C)(=O)=O)c2)cn1C", "note": "[Example 513]", "EC50": 133}
{"molecule": "Cc1sc(C(=O)Nc2cc(Cl)cc(NS(=O)(=O)CCO)c2)cc1-c1ncc(N2CC(C(F)(F)F)C2)cc1F", "note": "[Example 529]", "EC50": 253}
{"molecule": "Cc1cc(C(=O)Nc2cc(Cl)cc(NS(C)(=O)=O)c2)cn1-c1ccc(OC2COC2)cn1", "note": "[Example 668]", "EC50": 220}
{"molecule": "CN1CC(Oc2cnc(-c3cc(C(=O)Nc4cc(Cl)cc(NS(C)(=O)=O)c4)cn3CC(F)(F)F)c(F)c2)C1", "note": "[Example 638]", "EC50": 62.1}
{"molecule": "Cn1cc(C(=O)Nc2cc(Cl)cc(NS(C)(=O)=O)c2)cc1-c1ncc(N2CCC3(CC2)CC3)cc1F", "note": "[Example 468]", "EC50": 269}
{"molecule": "Cc1sc(C(=O)Nc2cc(Cl)cc(NS(C)(=O)=O)c2)c(F)c1-c1ncc(OC(C)C)cn1", "note": "[Example 683]", "EC50": "> 10000"}
{"molecule": "CCS(=O)(=O)Nc1cc(Cl)cc(NC(=O)c2cc(-c3ncc(F)cn3)n(C)c2)c1", "note": "[Example 542]", "EC50": 307}
{"molecule": "CCc1cncc(COc2cccnc2-c2cc(C(=O)Nc3cc(Cl)cc(NS(C)(=O)=O)c3)cn2C)c1", "note": "[Example 730]", "EC50": 171}
{"molecule": "Cn1cc(C(=O)Nc2cc(Cl)cc(NS(C)(=O)=O)c2)cc1-c1cc(N2CC(F)(F)C2)ccn1", "note": "[Example 552]", "EC50": 238}
{"molecule": "CN1CC[C@@H](Oc2cnc(-c3cc(C(=O)Nc4cc(Cl)cc(NS(C)(=O)=O)c4)cn3C)c(F)c2)C1", "note": "[Example 640]", "EC50": 16.2}
{"molecule": "Cn1cc(C(=O)Nc2cc(Cl)cc(NS(C)(=O)=O)c2)cc1-c1ccc(N2CC3(C2)CC(F)(F)C3)cn1", "note": "[Example 498]", "EC50": 131}
{"molecule": "COc1ccc(F)c(-c2cc(C(=O)Nc3cc(Cl)cc(NS(C)(=O)=O)c3)cn2C)n1", "note": "[Example 703]", "EC50": 387}
{"molecule": "CCS(=O)(=O)Nc1cc(Cl)cc(NC(=O)c2cc(-c3ncc(F)cc3F)n(C)c2)c1", "note": "[Example 543]", "EC50": 183}
{"molecule": "CCCS(=O)(=O)Nc1cc(Cl)cc(NC(=O)c2cc(-c3ccc(N4CC(F)(F)C4)cn3)n(C)c2)c1", "note": "[Example 531]", "EC50": "> 10000"}
{"molecule": "CS(=O)(=O)Nc1cc(Cl)cc(NC(=O)c2cc(-c3ncccc3F)n(CC(F)(F)F)c2)c1", "note": "[Example 564]", "EC50": 761}
{"molecule": "Cn1cc(C(=O)Nc2cc(Cl)cc(NS(C)(=O)=O)c2)cc1-c1ncc(OC2CN(C(=O)C3CC3)C2)cc1F", "note": "[Example 697]", "EC50": 329}
{"molecule": "Cc1nc(COc2cc(F)cnc2-c2cc(C(=O)Nc3cc(Cl)cc(NS(C)(=O)=O)c3)cn2C)cs1", "note": "[Example 724]", "EC50": 224}
{"molecule": "Cn1cc(C(=O)Nc2cc(Cl)cc(NS(C)(=O)=O)c2)cc1-c1ncc(N2CCC(C(F)(F)F)CC2)cc1F", "note": "[Example 472]", "EC50": 127}
{"molecule": "Cc1sc(C(=O)Nc2cc(Cl)cc(NS(C)(=O)=O)c2)cc1-c1ncc(C2(O)CN(C)C2)cc1F", "note": "[Example 681]", "EC50": 133}
{"molecule": "CCS(=O)(=O)Nc1cc(Cl)cc(NC(=O)c2cc(C)n(-c3ncc(F)cc3Cl)c2)c1", "note": "[Example 446]", "EC50": 966}
{"molecule": "Cn1cc(C(=O)Nc2cc(Cl)cc(NS(=O)(=O)CCO)c2)cc1-c1ncc(F)cc1F", "note": "[Example 581]", "EC50": 1680}
{"molecule": "Cn1cc(C(=O)Nc2cc(Cl)cc(NS(C)(=O)=O)c2)cc1-c1ncc(F)cc1OCc1cnnn1C", "note": "[Example 726]", "EC50": 320}
{"molecule": "CCS(=O)(=O)Nc1cc(Cl)cc(NC(=O)c2cc(-c3ncc(OC(C)(C)C)cn3)c(C)s2)c1", "note": "[Example 566]", "EC50": 156}
{"molecule": "CCc1sc(C(=O)Nc2cc(Cl)cc(NS(C)(=O)=O)c2)cc1-c1ncc(F)cc1F", "note": "[Example 588]", "EC50": 461}
{"molecule": "CN1CC(Oc2cnc(-c3cc(C(=O)Nc4cc(Cl)cc(NS(C)(=O)=O)c4)cn3CC(F)F)nc2)C1", "note": "[Example 679]", "EC50": 196}
{"molecule": "CS(=O)(=O)Nc1cc(Cl)cc(NC(=O)c2cc(-c3ncc(F)cn3)n(CC(F)(F)F)c2)c1", "note": "[Example 562]", "EC50": 543}
{"molecule": "Cc1noc(C)c1COc1cc(F)cnc1-c1cc(C(=O)Nc2cc(Cl)cc(NS(C)(=O)=O)c2)cn1C", "note": "[Example 725]", "EC50": 625}
{"molecule": "Cc1sc(C(=O)Nc2cc(Cl)cc(NS(C)(=O)=O)c2)cc1-c1ncc(S(C)(=O)=O)cn1", "note": "[Example 711]", "EC50": 170}
{"molecule": "Cc1sc(C(=O)Nc2cc(Cl)cc(NS(C)(=O)=O)c2)cc1-c1ncc(P(C)(C)=O)cn1", "note": "[Example 648]", "EC50": 471}
{"molecule": "CN1CC[C@H](Oc2cnc(-c3cc(C(=O)Nc4cc(Cl)cc(NS(C)(=O)=O)c4)cn3C)c(F)c2)C1", "note": "[Example 639, N-(3-chloro-5-methanesulfonamidophenyl)-5-(3-fluoro-5-{[(3S)-1-methylpyrrolidin-3-yl]oxy}pyridin-2-yl)-1-methylpyrrole-3-carboxamide]", "EC50": 26.6}
{"molecule": "Cc1cc(C(=O)Nc2cc(Cl)cc(NS(C)(=O)=O)c2)cn1-c1ccc(OC(C)(C)C)cn1", "note": "[Example 663]", "EC50": 124}
{"molecule": "Cn1cc(C(=O)Nc2cc(Cl)cc(NS(C)(=O)=O)c2)cc1-c1ccc(N2CCN(C(=O)C3CCCC3)CC2)cn1", "note": "[Example 592]", "EC50": 303}
{"molecule": "CS(=O)(=O)Nc1cc(Cl)cc(NC(=O)c2cc(-c3ccc(N4CC(F)(F)C4)cn3)cs2)c1", "note": "[Example 487]", "EC50": 654}
{"molecule": "Cc1sc(C(=O)Nc2cc(Cl)cc(NS(C)(=O)=O)c2)cc1-c1ncc(N2CCC(C(F)(F)F)CC2)cc1F", "note": "[Example 481]", "EC50": 128}
